Data: the supplement of paper PMC10307832

Assays:
Assay in all cases: relative viability (nuclei count vs DMSO), 5 days (fraction); higher = more cells survive
Dovitinib + Crizotinib = compound: CN1CCN(c2ccc3nc(-c4c(N)c5c(F)cccc5[nH]c4=O)[nH]c3c2)CC1 [Dovitinib] + C[C@@H](Oc1cc(-c2cnn(C3CCNCC3)c2)cnc1N)c1c(Cl)ccc(F)c1Cl [Crizotinib] (partner 1 µM)
Summary of the method: (§1)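 Relative viability divides the nuclei count in treated wells by that in vehicle wells. Lung cancer cell lines were seeded in 1536-well plates, dosed by pin tool the next day, and fixed and stained after 5 days in one step with final 0.05% Triton X-100, 1% formaldehyde and 1 ug/ml Hoechst. Dosing was a single drug or a fixed anchor-drug dose plus five library-drug doses (not always all listed) in √10 steps, and values are medians of duplicate plates imaged at 4×.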

Dovitinib + Phenformin = compound: CN1CCN(c2ccc3nc(-c4c(N)c5c(F)cccc5[nH]c4=O)[nH]c3c2)CC1 [Dovitinib] + N=C(N)NC(=N)NCCc1ccccc1 [Phenformin] (partner 250 µM)
Summary of the method: as §1

Dovitinib + Navitoclax = compound: CN1CCN(c2ccc3nc(-c4c(N)c5c(F)cccc5[nH]c4=O)[nH]c3c2)CC1 [Dovitinib] + CC1(C)CCC(c2ccc(Cl)cc2)=C(CN2CCN(c3ccc(C(=O)NS(=O)(=O)c4ccc(N[C@H](CCN5CCOCC5)CSc5ccccc5)c(S(=O)(=O)C(F)(F)F)c4)cc3)CC2)C1 [Navitoclax] (partner 0.5 µM)
Summary of the method: as §1

Dovitinib + Decitabine = compound: CN1CCN(c2ccc3nc(-c4c(N)c5c(F)cccc5[nH]c4=O)[nH]c3c2)CC1 [Dovitinib] + Nc1ncn([C@H]2C[C@H](O)[C@@H](CO)O2)c(=O)n1 [Decitabine] (partner 2 µM)
Summary of the method: as §1

| Cell Line | relative viability (Dovitinib + Crizotinib; first compound 0.02 µM) | relative viability (Dovitinib + Crizotinib; first compound 0.06325 µM) | relative viability (Dovitinib + Crizotinib; first compound 0.2 µM) | relative viability (Dovitinib + Crizotinib; first compound 0.6325 µM) | relative viability (Dovitinib + Crizotinib; first compound 2 µM) | relative viability (Dovitinib + Phenformin; first compound 0.02 µM) | relative viability (Dovitinib + Phenformin; first compound 0.06325 µM) | relative viability (Dovitinib + Phenformin; first compound 0.2 µM) | relative viability (Dovitinib + Phenformin; first compound 0.6325 µM) | relative viability (Dovitinib + Phenformin; first compound 2 µM) | relative viability (Dovitinib + Navitoclax; first compound 0.02 µM) | relative viability (Dovitinib + Navitoclax; first compound 0.06325 µM) | relative viability (Dovitinib + Navitoclax; first compound 0.2 µM) | relative viability (Dovitinib + Navitoclax; first compound 0.6325 µM) | relative viability (Dovitinib + Navitoclax; first compound 2 µM) | relative viability (Dovitinib + Decitabine; first compound 0.02 µM) | relative viability (Dovitinib + Decitabine; first compound 0.06325 µM) | relative viability (Dovitinib + Decitabine; first compound 0.2 µM) | relative viability (Dovitinib + Decitabine; first compound 0.6325 µM) | relative viability (Dovitinib + Decitabine; first compound 2 µM) |
| --- | --- | --- | --- | --- | --- | --- | --- | --- | --- | --- | --- | --- | --- | --- | --- | --- | --- | --- | --- | --- |
| NCI-H2085 | 0.753 | 0.904 | 0.851 | 0.856 | 0.9 | 0.69 | 0.846 | 0.732 | 0.771 | 0.717 | 1.05 | 1.09 | 1.08 | 1.07 | 1.1 | 0.606 | 0.532 | 0.592 | 0.573 | 0.558 |
| NCI-H2087 | 0.817 | 0.66 | 0.878 | 0.796 | 0.778 | 0.415 | 0.437 | 0.516 | 0.53 | 0.467 | 1.07 | 0.941 | 1.01 | 1.07 | 0.981 | 0.312 | 0.307 | 0.269 | 0.357 | 0.329 |
| NCI-H2126 | 1.03 | 1.04 | 1.05 | 1.02 | 1.08 | 0.524 | 0.504 | 0.582 | 0.536 | 0.581 | 0.857 | 0.886 | 0.874 | 0.81 | 0.873 | 0.605 | 0.573 | 0.676 | 0.556 | 0.599 |
| NCI-H2170 | 1.12 | 1.23 | 1.23 | 1.14 | 1.2 | 0.357 | 0.43 | 0.448 | 0.338 | 0.452 | 0.58 | 0.63 | 0.756 | 0.531 | 0.612 | 0.466 | 0.496 | 0.529 | 0.458 | 0.458 |
| NCI-H2347 | 0.784 | 0.653 | 0.79 | 0.961 | 0.676 | 0.294 | 0.381 | 0.378 | 0.43 | 0.376 | 0.892 | 0.812 | 0.86 | 0.707 | 0.932 | 0.642 | 0.545 | 0.644 | 0.682 | 0.623 |
| NCI-H2405 | 0.87 | 0.762 | 0.862 | 0.773 | 0.935 | 0.389 | 0.345 | 0.448 | 0.331 | 0.446 | 0.897 | 0.836 | 0.86 | 0.807 | 1.32 | 0.714 | 0.745 | 0.832 | 0.688 | 0.845 |
| NCI-H3122 | 0.294 | 0.27 | 0.287 | 0.284 | 0.263 | 0.34 | 0.362 | 0.414 | 0.33 | 0.385 | 1.05 | 1.03 | 0.954 | 1.02 | 1.07 | 0.493 | 0.431 | 0.447 | 0.48 | 0.374 |
| PC-3 [JPC-3] | 0.928 | 0.923 | 0.963 | 1.01 | 0.984 | 0.486 | 0.494 | 0.467 | 0.474 | 0.474 | 0.834 | 0.841 | 0.861 | 0.802 | 0.777 | 0.949 | 0.882 | 0.859 | 0.804 | 0.898 |
| PC-14 | 0.815 | 0.906 | 0.865 | 0.862 | 0.893 | 0.657 | 0.563 | 0.553 | 0.542 | 0.765 | 0.998 | 1.08 | 1 | 0.988 | 0.939 | 0.21 | 0.224 | 0.241 | 0.217 | 0.22 |
| RERF-LC-KJ | 0.796 | 0.817 | 0.86 | 0.815 | 0.861 | 0.412 | 0.417 | 0.447 | 0.42 | 0.384 | 0.794 | 1.06 | 1.1 | 1.15 | 1.09 | 0.709 | 0.729 | 0.701 | 0.685 | 0.637 |
| SK-LU-1 | 0.835 | 0.984 | 0.86 | 0.958 | 0.974 | 0.515 | 0.525 | 0.594 | 0.595 | 0.528 | 0.787 | 1.09 | 0.835 | 0.748 | 0.925 | 0.614 | 0.636 | 0.662 | 0.758 | 0.572 |
| SK-MES-1 | 1.04 | 0.957 | 0.932 | 1.01 | 0.954 | 0.662 | 0.7 | 0.69 | 0.634 | 0.667 | 1.24 | 1.21 | 1.16 | 1.31 | 1.27 | 0.358 | 0.404 | 0.381 | 0.414 | 0.348 |
| SW 1573 | 0.773 | 0.809 | 0.805 | 0.749 | 0.804 | 0.355 | 0.413 | 0.473 | 0.282 | 0.359 | 1.03 | 0.934 | 1.02 | 0.97 | 1 | 0.479 | 0.516 | 0.612 | 0.397 | 0.629 |
| UMC-11 | 0.636 | 0.716 | 0.576 | 0.514 | 0.733 | 0.315 | 0.327 | 0.347 | 0.323 | 0.344 | 0.364 | 0.308 | 0.373 | 0.297 | 0.318 | 0.614 | 0.589 | 0.64 | 0.575 | 0.715 |
